Measured values taken from US20210214368A1, “COMPOUNDS FOR THIOL-TRIGGERED COS AND/OR H2S RELEASE AND METHODS OF MAKING AND USING THE SAME” (University of Oregon, priority 2018, published 2021).

Experiments:
[1] = Thiol-triggered H2S release in PBS containing CA (MB assay); settings: compound 50 μM
Procedure: To evaluate thiol effects on COS/H2S release from cyclic perthiocarbamate compound embodiments, compound 306a (50 μM) was incubated in PBS (pH 7.4, 10 mM) containing Cys or GSH (up to 4.0 mM) and CA (25 μg/mL) and H2S release was monitored by MB assay. […] Additionally, other thiol triggers, such as cysteine, homocysteine, and N-acetyl cysteine, were combined with compound 306a to evaluate if they would trigger the compound to release H2S.
In this example, GSH-triggered H2S release from compound 900 was evaluated. […] To improve the H2S releasing capacity of ATB-346, compound 900 was made by reacting ATB-346 with chlorocarbonyl sulfenyl chloride reagent (see Scheme 9). The resultant compound 900 was then added to PBS containing GSH and CA.
Release of H2S from compound 404c (25 μM) in the presence of L-cysteine or reduced glutathione (GSH) (500 μM, 20 equiv.) measured by the spectrophotometric methylene blue assay, with results shown in FIG. 17.
In this example, additional compounds, such as cyclic sulfenyl thiocarbamate compounds 306a-306e, were evaluated for their ability to release H2S upon exposure to a biological thiol, cysteine.
With the hybrid NSAID in hand, COS/H2S release in aqueous buffer was evaluated.

HeLa cells = test: Imaging of H2S delivery in HeLa cells with SF7-AM probe; assay type: cell-based; settings: compound 50 μM 30 minutes, SF7-AM 5 μM
Procedure: In this example, H2S delivery from sulfenyl thiocarbamate compound 306a in HeLa cells was evaluated. HeLa cells were treated with Hoechst dye and SF7-AM (5 μM) in DMEM only for 5 minutes and then with DMEM only for 30 minutes (top row) or DMEM containing the compound (50 μM) for 30 minutes (bottom row). Cells were then washed with PBS and cell images were taken in PBS using a fluorescent microscope.

H2S release in the absence of thiol trigger ([1]; PBS, no thiol): Negligible H2S release was observed
Structure (SMILES): O=c1nc(-c2ccccc2)ss1 [Compound 306a]
GSH-dependent H2S release ([1]; GSH up to 4.0 mM, CA 25 μg/mL, PBS pH 7.4): GSH-dependent H2S release was observed
H2S release in the presence of thiols GSH, Cys, Hcy, and NAC ([1]; PBS, CA): H2S release was observed
H2S release with GSSG, Lys, Ser, Gly, S2O3^2−, SO3^2−, SO4^2− ([1]; PBS, CA): did not activate the compound and minimal H2S release was observed
H2S release with penicillamine ([1]; PBS, CA): minimal H2S release
SF7-AM (H2S probe) fluorescence in HeLa cells (HeLa cells): strong SF7-AM fluorescent signal
